Test results reported in patent publication US6797077B2, “Latex paint remover” (Pentagonal Holdings, Inc., priority 2000, dated 2004).
“Also recorded” adds a separate entry of the source.

Tests used:
Format in all cases: in vivo
[1] = Skin irritation, 16 CFR 1500.41 and 1500.3(c)(4)
Protocol: (§1) A cleaning composition composed of pure IBIB was tested for toxicity, skin irritation and eye irritation according to the protocol of the Federal Hazardous Substances Act, 16 CFR 1500.3(c)(2)(i), 1500.41 and 1500.42.

[2] = Eye irritation, 16 CFR 1500.42 and 1500.3(c)(4)
Protocol: as §1

[3] = Acute oral toxicity, Federal Hazardous Substances Act 16 CFR 1500.3(c)(2)(i)
Protocol: as §1

SMILES: CC(C)COC(=O)C(C)C [IBIB, Isobutyl isobutyrate]
- Skin irritation conclusion ([1]; 16 CFR 1500.41): not considered to be a primary skin irritant
- Primary Dermal Irritation Score (Average) ([1]; in vivo): 2.4
- Eye irritation conclusion ([2]; 16 CFR 1500.42): not considered to be a primary eye irritant
- Maximum Mean Total Score (Average) ([2]; eye irritation): 3.3
- Acute oral toxicity conclusion ([3]; 16 CFR 1500.3(c)(2)(i)): non-toxic; also recorded: Not considered as toxic
- Acute Oral LD50 ([3]; dose level 5,000 mg/kg): Acute Oral LD50 greater than five (5) grams per gram body weight
